Source: patent US4118561A, “7-(Substituted)-7H-pyrrolo[3,2-f]quinazoline-1,3-diamines” (priority 1977, dated 1978)
In brackets after ≈: the same amount, converted by molar mass.

How the values were obtained:
S. paratyphi 11737 = assay: In vitro antibacterial activity (MIC), S. paratyphi 11737; type: cell-based; settings: Salmonella enterica, 18 h
S. aureus Smith = assay: In vitro antibacterial activity (MIC), S. aureus Smith; settings: Staphylococcus aureus, 18 h
N. catarrhalis 8193 = assay: In vitro antibacterial activity (MIC), N. catarrhalis 8193; settings: 18 h
P. vulgaris 6896 = assay: In vitro antibacterial activity (MIC), P. vulgaris 6896; settings: Proteus vulgaris, 6896, 18 h
E. coli 9637 = assay: In vitro antibacterial activity (MIC), E. coli 9637; settings: Escherichia coli, 9637, 18 h
S. aureus 53-180 = assay: In vitro antibacterial activity (MIC), S. aureus 53-180; settings: Staphylococcus aureus, 53180, 18 h
K. pneumoniae 10031 = assay: In vitro antibacterial activity (MIC), K. pneumoniae 10031; settings: Klebsiella pneumoniae, 10031, 18 h

SMILES	MIC (S. paratyphi 11737) [µg/mL]	MIC (S. aureus Smith) [µg/mL]	MIC (N. catarrhalis 8193) [µg/mL]	MIC (P. vulgaris 6896) [µg/mL]	MIC (E. coli 9637) [µg/mL]	MIC (S. aureus 53-180) [µg/mL]	MIC (K. pneumoniae 10031) [µg/mL]
Nc1nc(N)c2c(ccc3c2ccn3-c2cc(-c3ccccc3)nc3ccccc23)n1 [Example 95]	> 250	31.3 (≈ 77.8 µM)	15.6 (≈ 38.8 µM)	> 250	250 (≈ 621 µM)	7.81 (≈ 19.4 µM)	250 (≈ 621 µM)
Nc1ccc(-n2ccc3c4c(N)nc(N)nc4ccc32)cc1 [Example 96, 7-(4-Aminophenyl)-7H-pyrrolo[3,2-f]-quinazaline-1,3-diamine]	0.488 (≈ 1.68 µM)	0.488 (≈ 1.68 µM)	0.0152 (≈ 0.0524 µM)	0.976 (≈ 3.36 µM)	0.244 (≈ 0.84 µM)	0.244 (≈ 0.84 µM)	0.031 (≈ 0.107 µM)
Nc1nc(N)c2c(ccc3c2ccn3-c2nc3ccccc3s2)n1 [Example 97, 7-(2-Benzothiazolyl)-7H-pyrrolo-[3,2-f]quinazoline-1,3-diamine]	> 250	250 (≈ 752 µM)	0.488 (≈ 1.47 µM)	> 250	> 250	125 (≈ 376 µM)	62.5 (≈ 188 µM)
Cc1cc2c3c(N)nc(N)nc3ccc2n1C [Example 99]	1.95 (≈ 8.58 µM)	31.3 (≈ 138 µM)	0.061 (≈ 0.268 µM)	0.976 (≈ 4.29 µM)	0.244 (≈ 1.07 µM)	31.3 (≈ 138 µM)	0.244 (≈ 1.07 µM)
Cc1cc2c3c(N)nc(N)nc3ccc2n1Cc1cccc(C#N)c1 [Example 101]	3.9 (≈ 11.9 µM)	0.122 (≈ 0.372 µM)	0.0038 (≈ 0.0116 µM)	3.9 (≈ 11.9 µM)	0.488 (≈ 1.49 µM)	0.061 (≈ 0.186 µM)	0.061 (≈ 0.186 µM)
Cc1cc2c3c(N)nc(N)nc3ccc2n1Cc1ccc(C#N)cc1 [Example 102]	7.81 (≈ 23.8 µM)	0.976 (≈ 2.97 µM)	0.061 (≈ 0.186 µM)	31.3 (≈ 95.3 µM)	1.95 (≈ 5.94 µM)	0.976 (≈ 2.97 µM)	0.244 (≈ 0.743 µM)
Nc1nc(N)c2c(ccc3c2cc(Cl)n3Cc2ccccc2)n1 [Example 104, 8-Chloro-7-(phenylmethyl)-7H-pyrrolo-[3,2-f]quinazoline-1,3-diamine]	7.81 (≈ 24.1 µM)	3.9 (≈ 12 µM)	0.061 (≈ 0.188 µM)	31.3 (≈ 96.7 µM)	3.9 (≈ 12 µM)	0.976 (≈ 3.01 µM)	0.244 (≈ 0.754 µM)
Nc1nc(N)c2c(ccc3[nH]c(-c4ccccc4)cc32)n1 [Example 105, 8-Phenyl-7H-pyrrolo[3,2-f]-quinazoline-1,3-diamine]	125 (≈ 454 µM)	7.81 (≈ 28.4 µM)	62.5 (≈ 227 µM)	> 250	62.5 (≈ 227 µM)	15.6 (≈ 56.7 µM)	31.3 (≈ 114 µM)
Cn1c(-c2ccccc2)cc2c3c(N)nc(N)nc3ccc21 [Example 106, 7-Methyl-8-phenyl-7H-pyrrolo[3,2-f]-quinazoline-1,3-diamine]	> 250	62.5 (≈ 216 µM)	31.3 (≈ 108 µM)	> 250	> 250	125 (≈ 432 µM)	3.9 (≈ 13.5 µM)
Nc1nc(N)c2c(ccc3[nH]c4c(c32)CCCC4)n1 [Example 107, 8,9,10,11-Tetrahydro-7H-pyrimido-[4,5-c]carbazole-1,3-diamine]	125 (≈ 493 µM)	62.5 (≈ 247 µM)	125 (≈ 493 µM)	> 250	125 (≈ 493 µM)	125 (≈ 493 µM)	125 (≈ 493 µM)
Nc1nc(N)c2c(ccc3c2c2c(n3Cc3ccccc3)CCCC2)n1 [Example 108, 8,9,10,11-Tetrahydro-7-(phenylmethyl)-7H-pyrimido[4,5-c]carbazole-1,3-diamine]	> 250	> 250	0.122 (≈ 0.355 µM)	> 250	> 250	250 (≈ 728 µM)	> 250
Cn1c2c(c3c4c(N)nc(N)nc4ccc31)CCCC2 [Example 109, 8,9,10,11-Tetrahydro-7-methyl-7H-pyrimido[4,5-c]carbazole-1,3-diamine]	250 (≈ 935 µM)	62.5 (≈ 234 µM)	3.9 (≈ 14.6 µM)	> 250	> 250	62.5 (≈ 234 µM)	62.5 (≈ 234 µM)
